The target in assay [1] is T1, Ferredoxin:NADP^+ oxidoreductase (PfFNR) (Plasmodium falciparum, UniProt C6KT68).
T1 construct: gene FNR; recombinant PfFNR
The assay is described as follows: steady-state kinetics; competitive inhibition versus AcPyP+ in transhydrogenase reaction; stopped-flow FAD reduction. It counts as biochemical. From the text: steady-state kinetics; competitive inhibition versus AcPyP+ in transhydrogenase reaction; stopped-flow FAD reduction on Ferredoxin:NADP^+ oxidoreductase (PfFNR) | NADPH acts as a competitive inhibitor to AcPyP^+, occupying the pyridine nucleotide binding site of the reduced enzyme form

Assay [2] concerns the target T1, Ferredoxin:NADP^+ oxidoreductase (PfFNR). The assay is described as follows: steady-state product inhibition of juglone reductase reaction. It counts as biochemical.

Our source for the Ki values is paper PMC7247349, “Reactions of Plasmodium falciparum Ferredoxin:NADP^+ Oxidoreductase with Redox Cycling Xenobiotics: A Mechanistic Study” (International Journal of Molecular Sciences, 2020).

T1 sequence (C6KT68 56-371): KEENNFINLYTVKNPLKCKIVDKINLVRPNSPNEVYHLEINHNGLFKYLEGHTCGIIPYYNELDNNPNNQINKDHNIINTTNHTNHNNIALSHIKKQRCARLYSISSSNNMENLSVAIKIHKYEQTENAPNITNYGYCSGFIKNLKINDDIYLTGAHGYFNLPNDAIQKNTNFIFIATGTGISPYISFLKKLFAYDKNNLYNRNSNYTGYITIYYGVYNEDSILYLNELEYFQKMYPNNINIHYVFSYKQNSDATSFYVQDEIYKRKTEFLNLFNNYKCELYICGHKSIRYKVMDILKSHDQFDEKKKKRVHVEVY

Regarding `NC(=O)C1=CN([C@@H]2O[C@H](COP(=O)(O)OP(=O)(O)OC[C@H]3O[C@@H](n4cnc5c(N)ncnc54)[C@H](OP(=O)(O)O)[C@@H]3O)[C@@H](O)[C@H]2O)C=CC1` [NADPH], in assay [1], the affinity, expressed as Ki, was 140 ± 20 µM.

`NC(=O)c1ccc[n+]([C@@H]2O[C@H](COP(=O)([O-])OP(=O)(O)OC[C@H]3O[C@@H](n4cnc5c(N)ncnc54)[C@H](OP(=O)(O)O)[C@@H]3O)[C@@H](O)[C@H]2O)c1` [NADP^+] returned a Ki in assay [2] of 1420 ± 130 µM.

In general, Ki refers to the dissociation constant of the complex between target and ligand, obtained from inhibition or displacement. Read a high Ki as a looser hold on the target.
